# Literature values in publication PMC7763995 (Molecules, 2020).
# Tested on: AChE-induced Aβ aggregation
# Parameters: method as in PMID 12527333
# Settings: at 100 μM; cited from earlier work
smiles,measurement,value
"CC[N+](C)(CC)CCC[n+]1c(-c2ccccc2)c2cc(N)ccc2c2ccc(N)cc21 [Propidium, propidium]",Decrease in AChE-induced Aβ aggregation,82%
